In PMC7369637, “Inhibition of Resistance-Refractory P. falciparum Kinase PKG Delivers Prophylactic, Blood Stage, and Transmission-Blocking Antiplasmodial Activity” (Cell Chemical Biology, 2020):
Where two headings read alike, the source gives them in different places.

Columns and labels:
Pf ABS parasites = experiment: Light microscopy of ABS development; assay type: cell-based, Plasmodium falciparum; conditions: ring-stage parasites exposed to 350 nM (approximately 3 × IC50)
[1] = test system: ed. Dd2-B2 TKL3I1250M+T1268R; experiment: 72-h ABS assay, CRISPR/Cas9-edited double-mutant line; assay type: cell-based; conditions: Plasmodium falciparum, parent Dd2-B2 wild-type
From the text: Supplement mmc2.xlsx, sheet "Table S1 (I)" | column: Mean IC50

[2] = test system: P. berghei ANKA liver stages; experiment: Liver stage susceptibility, luciferase-based assay (PbLuc sporozoites in HepG2); assay type: cell-based; conditions: Plasmodium berghei
Procedure: P. berghei ANKA infections were maintained in BALB/c female mice (The Jackson Laboratory) infected via intraperitoneal injection of 2×10^7 blood stage parasites. Infected mice were provided water ad libitum and housed in standard cages in an animal facility room maintained at 22°C and 50-70% relative humidity. Anopheles stephensi mosquitoes were housed in an insectary maintained at 27°C, 80% humidity and a 12:12 light:dark schedule. […] 24 h before infection, 384-well plates (Greiner Bio) were seeded with 1x10^4 HepG2-A16-CD81^EGFP cells in 30 μL of assay medium (DMEM without Phenol Red (Life Technologies, CA), 5% FBS and 5x Pen-Strep Glutamine (Life Technologies, CA)). Luciferase-expressing Pb (PbLuc) sporozoites were freshly obtained by dissecting salivary glands of infected Anopheles stephensi mosquitoes and 5x10^3 sporozoites in 30 μL were added to each well. Plates were centrifuged for 5 min at 330g and incubated for 2 h at 37°C and 5% CO2. Unbound sporozoites were then removed by centrifugation and washing and 30 μL of fresh medium was added. […] Luminescence was measured using an Envision Multilabel Reader (PerkinElmer) to assess parasite growth as a function of compound concentrations.

ed. Dd2-B2 TKL3KO = experiment: 72-h ABS assay, TKL3 knockout line; assay type: cell-based; conditions: Plasmodium falciparum, parent Dd2-B2 wild-type
Procedure: (§1) Synchronicity was achieved using three rounds of sorbitol treatment on early rings, spaced 48 h apart, followed by magnetic purification of segmented schizonts following the final sorbitol treatment. Parasites were highly synchronous to within a 3 h window of development. Assays were repeated on at least three independent occasions (each with technical duplicates) and statistical significance was assessed using Mann Whitney U tests.
(§2) The resulting MMV030084-resistant parasites were cloned by limiting dilution ([Baker et al., 2017]) to obtain genetically homogenous cultures for further phenotyping and whole-genome sequencing. A second round of […]. […] Drug susceptibility of resistant lines was assessed using a 72 h ABS assay as described above, and a Mann Whitney U test was applied to assess statistically significant differences.
A CRISPR/Cas9 targeted gene editing strategy using an all-in-one plasmid approach was applied to introduce T1268R, I1250M and T1268R+I1250M in wild-type Dd2-B2 parasites or to produce a TKL3 KO line by inserting a stop codon and frameshift at amino acid position 1268. […] WR99210 (2.5 nM) was added to the culture medium 24 h after electroporation to select for successfully transfected parasites and was maintained in the medium until edited parasites were detected. […]

[3] = test system: 3D7-A10 parasites (rings, trophozoites, schizonts); experiment: ABS stage-specific 8-h exposure assay on highly synchronized parasites; assay type: cell-based, Plasmodium falciparum; conditions: for IC50: 3D7-A10, 8 h exposure
Procedure: as §1

sel. Dd2-B2 TKL3T1268R = experiment: 72-h ABS assay, MMV030084-selected line; assay type: cell-based, Plasmodium falciparum; conditions: Plasmodium falciparum
Procedure: as §1, §2

Pf 3D7-A10 ABS parasites = experiment: 72-h ABS growth inhibition assay, 3D7-A10; assay type: cell-based; conditions: Plasmodium falciparum, 3D7, Line 3D7-A10 wild-type
Procedure: as §1, with “Parasites were highly synchronous to within a 3 h window of development.” left out

CC(C)(CN)c1nc(-c2ccc(Cl)c(O)c2)c(-c2ccncc2)[nH]1 [MMV030084]
ABS development by light microscopy (Pf ABS parasites): halted at the schizont stage
IC50 [1]: 0.347 µM
IC50 ([2]; HepG2, compound added 2 h after infection, read-out: IC50, liver stage, post-invasion exposure): > 10 µM
IC50 ([2]; luciferase-expressing Pb parasites, host HepG2 liver cells, pre-invasion exposure, read-out: IC50, liver stage): 0.199 µM
IC50 (ed. Dd2-B2 TKL3KO): 0.376 µM
IC50 ([3]; first shift of biphasic curve, read-out: Mean IC50, schizont biphasic shift 1): 0.0956 µM
IC50 ([3]; second shift of biphasic curve, read-out: Mean IC50, schizont activity shift 2): 3.93 µM
IC50 ([3]; read-out: Mean IC50, late ring stage activity): 5.87 µM
Survival at plateau phase of biphasic schizont curve ([3]; 3D7-A10 schizonts, 8 h exposure): ~ 58%
IC50 ([3]; Plasmodium falciparum, 3D7, 8 h, early and late rings averaged, read-out: Average IC50, rings): 5.56 µM
IC50 ([3]; Plasmodium falciparum, 3D7, 8 h, early and late trophozoites averaged, read-out: Average IC50, trophozoites): 3.25 µM
IC50 ([3]; Plasmodium falciparum, 3D7, 8 h, first shift of biphasic curve, read-out: Mean IC50, schizont biphasic shift 1): 0.096 µM
IC50 ([3]; Plasmodium falciparum, 3D7, 8 h, second shift of biphasic curve, read-out: Mean IC50, schizont activity shift 2): 3.93 µM
IC50 ([3]; Plasmodium falciparum, 3D7, 8 h, read-out: Mean IC50, early ring stage activity): 5.25 µM
IC50 ([3]; Plasmodium falciparum, 3D7, 8 h, read-out: Mean IC50, early trophozoite activity): 3.21 µM
IC50 ([3]; Plasmodium falciparum, 3D7, 8 h, read-out: Mean IC50, late ring stage activity): 5.87 µM
IC50 ([3]; Plasmodium falciparum, 3D7, 8 h, read-out: Mean IC50, late trophozoite activity): 3.28 µM
IC50 (sel. Dd2-B2 TKL3T1268R): 0.355 µM
IC50 (Pf 3D7-A10 ABS parasites): 0.178 µM
